# Measured values: PubChem BioAssay (NCI)
#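 1) Cells in 96-well plates. 2) Compound, 48 h, 5 concentrations. 3) Linear interpolation between surrounding doses. 4) Unreached endpoint = highest concentration. TGI marks complete inhibition of growth.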
# Assays:
# Assay in all cases: DTP human tumour cell line panel, 48 h
# 786-0 renal = system: 786-0 renal
# SNB-19 CNS = system: SNB-19 CNS
# TK-10 renal = system: TK-10 renal
# SF-268 CNS = system: SF-268 CNS
# LOX IMVI melanoma = system: LOX IMVI melanoma
# A498 renal = system: A498 renal
# UACC-257 melanoma = system: UACC-257 melanoma
# SK-MEL-28 melanoma = system: SK-MEL-28 melanoma
# SF-539 CNS = system: SF-539 CNS
# PC-3 prostate = system: PC-3 prostate
compound,measurement,setting,value
CC1CN=C(c2ccc(COc3ccc(C4=NCC(C)N4)cc3)cc2)N1 (stereo not given),TGI,786-0 renal,> 100 µM
same,TGI,SNB-19 CNS,> 100 µM
same,TGI,TK-10 renal,> 100 µM
same,TGI,SF-268 CNS,> 100 µM
same,TGI,LOX IMVI melanoma,> 100 µM
same,TGI,A498 renal,> 100 µM
same,TGI,UACC-257 melanoma,68.3 µM
same,TGI,SK-MEL-28 melanoma,> 100 µM
same,TGI,SF-539 CNS,> 100 µM
same,TGI,PC-3 prostate,> 100 µM
OC1c2ccccc2C(O)C2OC12 (stereo not given),TGI,786-0 renal,> 100 µM
same,TGI,SNB-19 CNS,> 100 µM
same,TGI,TK-10 renal,> 100 µM
same,TGI,SF-268 CNS,> 100 µM
same,TGI,LOX IMVI melanoma,> 100 µM
same,TGI,A498 renal,> 100 µM
same,TGI,UACC-257 melanoma,> 100 µM
same,TGI,SK-MEL-28 melanoma,> 100 µM
same,TGI,SF-539 CNS,> 100 µM
same,TGI,PC-3 prostate,> 100 µM
C=C1c2nc3ccccc3n2C=C(c2ccc(OC)cc2)N1c1ccc(OCCN2CCOCC2)cc1,TGI,786-0 renal,> 100 µM
same,TGI,SNB-19 CNS,> 100 µM
same,TGI,TK-10 renal,> 100 µM
same,TGI,SF-268 CNS,> 31.9 µM
same,TGI,LOX IMVI melanoma,> 100 µM
same,TGI,A498 renal,> 100 µM
same,TGI,UACC-257 melanoma,17.6 µM
same,TGI,SK-MEL-28 melanoma,> 100 µM
same,TGI,SF-539 CNS,> 100 µM
same,TGI,PC-3 prostate,> 100 µM
CC[C@H](C)C1=C(OC(C)=O)[N@+]2([O-])Oc3ccc(-c4c(OC(C)=O)c(OC(C)=O)c(-c5ccc(OC(C)=O)cc5)c(OC(C)=O)c4OC(C)=O)cc3O[C@]2([C@@H](C)CC)C(=O)N1OC(C)=O,TGI,786-0 renal,33.8 µM
same,TGI,SNB-19 CNS,> 50 µM
same,TGI,TK-10 renal,> 50 µM
same,TGI,SF-268 CNS,> 50 µM
same,TGI,LOX IMVI melanoma,22.1 µM
same,TGI,A498 renal,42.5 µM
same,TGI,UACC-257 melanoma,> 50 µM
same,TGI,SK-MEL-28 melanoma,> 50 µM
same,TGI,SF-539 CNS,28.5 µM
same,TGI,PC-3 prostate,30 µM
CC(=O)N(CN1C(=O)CCC1C(=O)O)c1ccccc1Cl (stereo not given),TGI,786-0 renal,> 100 µM
same,TGI,SNB-19 CNS,> 100 µM
same,TGI,TK-10 renal,> 100 µM
same,TGI,SF-268 CNS,> 100 µM
same,TGI,LOX IMVI melanoma,> 100 µM
same,TGI,A498 renal,> 100 µM
same,TGI,UACC-257 melanoma,> 100 µM
same,TGI,SK-MEL-28 melanoma,> 100 µM
same,TGI,SF-539 CNS,> 100 µM
same,TGI,PC-3 prostate,> 100 µM
